In PubChem BioAssay (NCI):
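At the GI50, growth is halved. TGI: concentration producing complete growth inhibition.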

How the values were obtained:
Experiment in all cases: inhibition of tumour cell growth, NCI panel, 384-well format
U251 glioblastoma = system: U251 glioblastoma
SN12C renal = system: SN12C renal
MDA-MB-231 breast = system: MDA-MB-231 breast
NCI-H460 NSCLC = system: NCI-H460 NSCLC
COLO 205 colon = system: COLO 205 colon
SW-620 colon = system: SW-620 colon
HCC-2998 colon = system: HCC-2998 colon
MCF7 breast = system: MCF7 breast
K-562 leukemia = system: K-562 leukemia
HOP-62 NSCLC = system: HOP-62 NSCLC
KM12 colon = system: KM12 colon
ACHN renal = system: ACHN renal
SNB-75 CNS = system: SNB-75 CNS
T-47D breast = system: T-47D breast
DU-145 prostate = system: DU-145 prostate
UO-31 renal = system: UO-31 renal
M14 melanoma = system: M14 melanoma
SF-268 CNS = system: SF-268 CNS
HT29 colon = system: HT29 colon
SNB-19 CNS = system: SNB-19 CNS
NCI-H226 lung = system: NCI-H226 lung
HS 578T breast = system: HS 578T breast
786-0 renal = system: 786-0 renal
OVCAR-5 ovarian = system: OVCAR-5 ovarian
OVCAR-4 ovarian = system: OVCAR-4 ovarian
RXF 393 renal = system: RXF 393 renal
HL-60(TB) leukemia = system: HL-60(TB) leukemia
OVCAR-8 ovarian = system: OVCAR-8 ovarian
BT-549 breast = system: BT-549 breast
EKVX NSCLC = system: EKVX NSCLC
SK-OV-3 ovarian = system: SK-OV-3 ovarian
SK-MEL-28 melanoma = system: SK-MEL-28 melanoma
NCI/ADR-RES ovarian = system: NCI/ADR-RES ovarian
NCI-H23 lung = system: NCI-H23 lung
SF-295 CNS = system: SF-295 CNS
SK-MEL-5 melanoma = system: SK-MEL-5 melanoma
RPMI-8226 leukemia = system: RPMI-8226 leukemia
MALME-3M melanoma = system: MALME-3M melanoma
UACC-257 melanoma = system: UACC-257 melanoma
A498 renal = system: A498 renal
OVCAR-3 ovarian = system: OVCAR-3 ovarian
HCT-116 colon = system: HCT-116 colon
MDA-MB-435 melanoma = system: MDA-MB-435 melanoma
CAKI-1 renal = system: CAKI-1 renal
NCI-H522 lung = system: NCI-H522 lung
MOLT-4 leukemia = system: MOLT-4 leukemia
MDA-MB-468 breast = system: MDA-MB-468 breast
CCRF-CEM leukemia = system: CCRF-CEM leukemia
HOP-92 NSCLC = system: HOP-92 NSCLC
PC-3 prostate = system: PC-3 prostate
SF-539 CNS = system: SF-539 CNS
IGROV1 ovarian = system: IGROV1 ovarian
NCI-H322M lung = system: NCI-H322M lung
SR leukemia = system: SR leukemia
TK-10 renal = system: TK-10 renal
A549 NSCLC = system: A549 NSCLC
HCT-15 colon = system: HCT-15 colon

Compound: CS(=O)c1ccc(-c2nc(-c3ccc(F)cc3)c(-c3ccncc3)[nH]2)cc1 (centres undefined)
- GI50 (U251 glioblastoma): 27.8 µM
- TGI (U251 glioblastoma): 62.4 µM
- GI50 (SN12C renal): 48.5 µM
- TGI (SN12C renal): > 100 µM
- GI50 (MDA-MB-231 breast): 35.6 µM
- TGI (MDA-MB-231 breast): > 100 µM
- GI50 (NCI-H460 NSCLC): 27.8 µM
- TGI (NCI-H460 NSCLC): 64.1 µM
- GI50 (COLO 205 colon): 11.8 µM
- TGI (COLO 205 colon): 24.5 µM
- GI50 (SW-620 colon): 31.5 µM
- TGI (SW-620 colon): 49.2 µM
- GI50 (HCC-2998 colon): 23.2 µM
- TGI (HCC-2998 colon): 38.7 µM
- GI50 (MCF7 breast): 26.8 µM
- TGI (MCF7 breast): 90.7 µM
- GI50 (K-562 leukemia): 27.8 µM
- TGI (K-562 leukemia): > 100 µM
- GI50 (HOP-62 NSCLC): 23 µM
- TGI (HOP-62 NSCLC): 50.1 µM
- GI50 (KM12 colon): 27.4 µM
- TGI (KM12 colon): 62.3 µM
- GI50 (ACHN renal): 19 µM
- TGI (ACHN renal): 65.1 µM
- GI50 (SNB-75 CNS): 44.2 µM
- TGI (SNB-75 CNS): > 100 µM
- GI50 (T-47D breast): 27.4 µM
- TGI (T-47D breast): 83.9 µM
- GI50 (DU-145 prostate): 30.4 µM
- TGI (DU-145 prostate): 93.2 µM
- GI50 (UO-31 renal): 21.4 µM
- TGI (UO-31 renal): 69.9 µM
- GI50 (M14 melanoma): 6.96 µM
- TGI (M14 melanoma): 29.4 µM
- GI50 (SF-268 CNS): 43.4 µM
- TGI (SF-268 CNS): > 100 µM
- GI50 (HT29 colon): 11.1 µM
- TGI (HT29 colon): 24 µM
- GI50 (SNB-19 CNS): 56.8 µM
- TGI (SNB-19 CNS): > 100 µM
- GI50 (NCI-H226 lung): 19.9 µM
- TGI (NCI-H226 lung): 34.4 µM
- GI50 (HS 578T breast): 20.7 µM
- TGI (HS 578T breast): 39 µM
- GI50 ([…]-0 renal): 17.8 µM
- TGI (786-0 renal): 36.5 µM
- GI50 (OVCAR-5 ovarian): 40.4 µM
- TGI (OVCAR-5 ovarian): > 100 µM
- GI50 (OVCAR-4 ovarian): 38.2 µM
- TGI (OVCAR-4 ovarian): 93.8 µM
- GI50 (RXF 393 renal): 17.8 µM
- TGI (RXF 393 renal): 33.5 µM
- GI50 (HL-60(TB) leukemia): 16.4 µM
- TGI (HL-60(TB) leukemia): 30.3 µM
- GI50 (OVCAR-8 ovarian): 24 µM
- TGI (OVCAR-8 ovarian): 90.4 µM
- GI50 (BT-549 breast): 41.7 µM
- TGI (BT-549 breast): > 100 µM
- GI50 (EKVX NSCLC): 32.6 µM
- TGI (EKVX NSCLC): > 100 µM
- GI50 (SK-OV-3 ovarian): 22.7 µM
- TGI (SK-OV-3 ovarian): 58.2 µM
- GI50 (SK-MEL-28 melanoma): 12.1 µM
- TGI (SK-MEL-28 melanoma): 25.6 µM
- GI50 (NCI/ADR-RES ovarian): 98.1 µM
- TGI (NCI/ADR-RES ovarian): > 100 µM
- GI50 (NCI-H23 lung): 26.7 µM
- TGI (NCI-H23 lung): 52.6 µM
- GI50 (SF-295 CNS): 20.1 µM
- TGI (SF-295 CNS): 35.1 µM
- GI50 (SK-MEL-5 melanoma): 14.7 µM
- TGI (SK-MEL-5 melanoma): 28.4 µM
- GI50 (RPMI-8226 leukemia): 23.6 µM
- TGI (RPMI-8226 leukemia): 40.3 µM
- GI50 (MALME-3M melanoma): 11.9 µM
- TGI (MALME-3M melanoma): 28.1 µM
- GI50 (UACC-257 melanoma): 15.3 µM
- TGI (UACC-257 melanoma): 30 µM
- GI50 (A498 renal): 16.7 µM
- TGI (A498 renal): 55.2 µM
- GI50 (OVCAR-3 ovarian): 29.3 µM
- TGI (OVCAR-3 ovarian): 68.8 µM
- GI50 (HCT-116 colon): 23.3 µM
- TGI (HCT-116 colon): 50.9 µM
- GI50 (MDA-MB-435 melanoma): 33.2 µM
- TGI (MDA-MB-435 melanoma): > 100 µM
- GI50 (CAKI-1 renal): 22.2 µM
- TGI (CAKI-1 renal): 88.4 µM
- GI50 (NCI-H522 lung): 14.8 µM
- TGI (NCI-H522 lung): 35.2 µM
- GI50 (MOLT-4 leukemia): 25.1 µM
- TGI (MOLT-4 leukemia): 62.2 µM
- GI50 (MDA-MB-468 breast): 10.5 µM
- TGI (MDA-MB-468 breast): 29.2 µM
- GI50 (CCRF-CEM leukemia): 17.7 µM
- TGI (CCRF-CEM leukemia): 42.8 µM
- GI50 (HOP-92 NSCLC): 34.8 µM
- TGI (HOP-92 NSCLC): > 100 µM
- GI50 (PC-3 prostate): 40.3 µM
- TGI (PC-3 prostate): > 100 µM
- GI50 (SF-539 CNS): 29.5 µM
- TGI (SF-539 CNS): 71.6 µM
- GI50 (IGROV1 ovarian): 13.9 µM
- TGI (IGROV1 ovarian): 28.9 µM
- GI50 (NCI-H322M lung): 37.5 µM
- TGI (NCI-H322M lung): 96.2 µM
- GI50 (SR leukemia): 13.1 µM
- TGI (SR leukemia): 26.4 µM
- GI50 (TK-10 renal): 16.8 µM
- TGI (TK-10 renal): 37.4 µM
- GI50 (A549 NSCLC): 38.9 µM
- TGI (A549 NSCLC): > 100 µM
- GI50 (HCT-15 colon): 18.4 µM
- TGI (HCT-15 colon): 37.1 µM
